Laboratory results from patent publication US20110190306A1, “Inhibitors of PLK” (CHROMA THERAPEUTICS LTD., priority 2008, published 2011).

Test system: HCT 116 cell line
Experiment: Cell inhibition assay (WST-1 proliferation), HCT-116
Format: cell-based
Conditions: Homo sapiens, 72 hrs incubation, read-out: Inhibitor Activity vs HCT 116 cell line
Method: Cells were seeded in 96W tissue culture plates (1 well=30 mm^2) in 50 μl of the appropriate culture medium (see below). Seeding densities were cell-line dependent: HCT-116=1000 cells per well, Hut-78=2250 cells per well, U937 cells=2000 cells per well. 24 hrs later 50 μL of the compound prepared in the same medium was added as 4 fold dilutions to give final concentrations in the range 0.15 nM-2500 nM (n=6 for each concentration). The plates were then incubated at 37° C., 5% CO2 for 72 hrs. Cell proliferation was assessed using WST-1 (a metabolic indicator dye, Roche Cat no. 1 644 807) according to the manufacturers instructions. The results were calculated as percentage of vehicle response and IC50 values represent the concentration of compound that inhibited the vehicle response by 50%.
HCT-116 Culture Medium—Dulbeccos MEM (Sigma D6546) plus 10% heat inactivated fetal calf serum (Hyclone SH30071 Thermo Fischer Scientific) containing 2 mM Glutamine (Sigma cat no G-7513) and 50 U/mL Penicillin and Streptomycin Sulphate (Sigma Cat no P-0781).

IC50: 100 to 500 nM
Compound: CC[C@@H]1C(=O)N(C)c2cnc(Nc3ccc(C(=O)NC4CCN(CC[C@](C)(N)C(=O)OC)CC4)cc3OC)nc2N1C1CCCC1 [Example 1, Methyl 4-{4-[(4-{[(7R)-8-cyclopentyl-7-ethyl-5-methyl-6-oxo-5,6,7,8-tetrahydropteridin-2-yl]amino}-3-methoxybenzoyl)amino]piperidin-1-yl}isovalinate]
